Values quoted from earlier work, collected in patent US10414795B2, “Techniques of preparing collagen active peptides” (Technical Institute of Physics and Chemistry, Chinese …, priority 2016, dated 2019).

Tested on: human breast cancer cell line MCF-7
Conditions: read-out: IC50, dose-dependent inhibition effect

In the case of “PTAEGVYMVT [Pro-Thr-Ala-Glu-Gly-Val-Tyr-Met-Val-Thr, anticancer peptide (1124 Da) from tuna dark muscle byproduct hydrolysate]”, the IC50 is given as 8.8 µM.

For “LPHVLTPEAGAT [Leu-Pro-His-Val-Leu-Thr-Pro-Glu-Ala-Gly-Ala-Thr, anticancer peptide (1206 Da) from tuna dark muscle byproduct hydrolysate]”, the IC50 is given as 8.1 µM.
